Like-named read-outs stand apart in the source and are kept apart here.
How the values were obtained:
[1] = biological target: FLNA pentapeptide of SEQ ID NO: 1 (Bn-VAKGL) (Homo sapiens, UniProt P21333); assay: FITC-NLX-based FLNA screening assay (inhibition of FITC-naloxone binding to Bn-VAKGL on streptavidin plates); details: 10 nM FITC-NLX
mu opiate receptor (MOR) = assay: MOR agonist activity using [35S]GTPγS binding assay in striatal membranes; format: biochemical; details: for MOR agonist activity ([35S]GTPγS binding), FLNA-Binding Compound as Agonist 1 μM + BFNA: 1 μM compound + 1 μM β-funaltrexamine
Procedure, shortened: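 Striatal membranes (200 μg) were preincubated 5 min at 30 °C in HEPES pH 7.5 with 100 mM NaCl, 1 mM MgCl2 and 0.5 nM [35S]GTPγS, then 5 min more with 0.1–10 μM compound. Gαo was immunoprecipitated and bound radioactivity counted by scintillation.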

[2] = read-out: Percent Binding Inhibition, FLNA-binding compound 0.01 μM
[3] = read-out: Percent Binding Inhibition, FLNA-binding compound 0.1 μM
[4] = read-out: Percent Binding Inhibition, FLNA-binding compound 1 μM
[5] = Series B, 0.1 μM compound, relative to DAMGO
[6] = Series B, 0.1 μM compound, [35S]GTPγS binding to Gαo, striatal membranes
[7] = Series B, 1 μM compound + 1 μM β-FNA
[8] = Series B, 1 μM compound + β-FNA, relative to DAMGO + BFNA
[9] = Series B, 1 μM compound, relative to DAMGO
[10] = Series B, 1 μM compound, [35S]GTPγS binding to Gαo, striatal membranes
[11] = Series C-2, 0.1 μM compound, relative to DAMGO
[12] = Series C-2, 0.1 μM compound, [35S]GTPγS binding to Gαo, striatal membranes
[13] = Series C-2, 1 μM compound + 1 μM β-FNA
[14] = Series C-2, 1 μM compound + β-FNA, relative to DAMGO + BFNA
[15] = Series C-2, 1 μM compound, relative to DAMGO
[16] = Series C-2, 1 μM compound, [35S]GTPγS binding to Gαo, striatal membranes
[17] = 0.1 μM compound relative to DAMGO
[18] = 1 μM compound + BFNA relative to DAMGO + BFNA
[19] = 1 μM compound relative to DAMGO

SMILES	inhibition at 0.01 µM [1, 2]	inhibition at 0.1 µM [1, 3]	inhibition at 1 µM [1, 4]	% DAMGO (0.1 μM) (mu opiate receptor (MOR); [5])	MOR agonist activity, percent [35S]GTPγS binding at the stated compound concentration (mu opiate receptor (MOR); [6])	MOR agonist activity, percent [35S]GTPγS binding at the stated compound concentration (mu opiate receptor (MOR); [7])	% DAMGO + BFNA (mu opiate receptor (MOR); [8])	% DAMGO (1 μM) (mu opiate receptor (MOR); [9])	MOR agonist activity, percent [35S]GTPγS binding at the stated compound concentration (mu opiate receptor (MOR); [10])	also measured
COc1ccc(CCC(=O)CC2c3c(cc4c(c3OC)OCO4)CC[N+]2(C)C)cc1OC (stereo not drawn) [Compound B0042]	40.8%	46.4%	51.6%	39.6%	69.9%	43.1%	163.9%	42.3%	107.5%	
COc1c2c(cc3c1C(CC(=O)Cc1ccccc1C)N(C)CC3)OCO2 (stereo not drawn) [Compound B0053]	33.1%	37.3%	47.6%	94.8%	160.2%	134.3%	809.0%	137.0%	299.8%	
O=C1CNC2(CCNCC2)N1Cc1ccccc1 [Compound C0114M]	57.1%	63.2%	66.7%							% DAMGO (0.1 μM) (mu opiate receptor (MOR); [11]): 77.6%; MOR agonist activity, percent [35S]GTPγS binding at the stated compound concentration (mu opiate receptor (MOR); [12]): 114.0%; MOR agonist activity, percent [35S]GTPγS binding at the stated compound concentration (mu opiate receptor (MOR); [13]): 35.9%; % DAMGO + BFNA (mu opiate receptor (MOR); [14]): 91.3%; % DAMGO (1 μM) (mu opiate receptor (MOR); [15]): 71.4%; MOR agonist activity, percent [35S]GTPγS binding at the stated compound concentration (mu opiate receptor (MOR); [16]): 144.3%
COc1ccccc1CC(O)CC1c2c(cc3c(c2OC)OCO3)CC[N+]1(C)C (stereo not drawn) [Compound B0032]	45.1%	51.3%	48.9%	115.0%	221.1%	15.6%	35.5%	109.0%	297.7%	
CC(=O)c1ccc(S(=O)(=O)N2CC(CN(C)C)OC23CCNCC3)cc1 (stereo not drawn) [Compound C0118M]	56.6%	61.4%	62.4%							% DAMGO (0.1 μM) (mu opiate receptor (MOR); [11]): 87.8%; MOR agonist activity, percent [35S]GTPγS binding at the stated compound concentration (mu opiate receptor (MOR); [12]): 166.2%; MOR agonist activity, percent [35S]GTPγS binding at the stated compound concentration (mu opiate receptor (MOR); [13]): 79.2%; % DAMGO + BFNA (mu opiate receptor (MOR); [14]): 163.3%; % DAMGO (1 μM) (mu opiate receptor (MOR); [15]): 105.4%; MOR agonist activity, percent [35S]GTPγS binding at the stated compound concentration (mu opiate receptor (MOR); [16]): 261.5%
CC1CN(CC(O)COc2ccc(Br)c(F)c2)CC(C)O1 (stereo not drawn) [Compound A0041]	45.8%	51.7%	56.9%							MOR agonist activity ([35S]GTPγS binding), FLNA-Binding Compound as Agonist 0.1 μM (mu opiate receptor (MOR); 0.1 μM compound): 212.7%; % DAMGO (0.1 μM) (mu opiate receptor (MOR); [17]): 108.4%; MOR agonist activity ([35S]GTPγS binding), FLNA-Binding Compound as Agonist 1 μM (mu opiate receptor (MOR); 1 μM compound): 283.6%; MOR agonist activity ([35S]GTPγS binding), FLNA-Binding Compound as Agonist 1 μM + BFNA (mu opiate receptor (MOR)): 50.6%; % DAMGO + BFNA (mu opiate receptor (MOR); [18]): 68.5%; % DAMGO (1 μM) (mu opiate receptor (MOR); [19]): 102.8%
O=S(=O)(c1ccccc1)N1CCC2(CC1)OCCN2S(=O)(=O)c1ccccc1 [Compound C0016]	38.3%	43.8%	49.1%							% DAMGO (0.1 μM) (mu opiate receptor (MOR); Series C-1, 0.1 μM compound, relative to DAMGO): 100.4%; Concentration of FLNA-Binding Compound as Agonist 0.1 μM (mu opiate receptor (MOR); Series C-1, 0.1 μM compound, [35S]GTPγS binding to Gαo, striatal membranes): 172.7%; Concentration of FLNA-Binding Compound as Agonist 1 μM + BFNA (mu opiate receptor (MOR); Series C-1, 1 μM compound + 1 μM β-FNA): 96.7%; % DAMGO + BFNA (mu opiate receptor (MOR); Series C-1, 1 μM compound + β-FNA, relative to DAMGO + BFNA): 150.9%; % DAMGO (1 μM) (mu opiate receptor (MOR); Series C-1, 1 μM compound, relative to DAMGO): 83.3%; Concentration of FLNA-Binding Compound as Agonist 1 μM (mu opiate receptor (MOR); Series C-1, 1 μM compound, [35S]GTPγS binding to Gαo, striatal membranes): 230.5%
COc1ccccc1CCC(=O)CC1c2c(cc3c(c2OC)OCO3)CC[N+]1(C)C (stereo not drawn) [Compound B0045]	63.2%	68.2%	73.9%	82.6%	129.3%	83.8%	257.1%	83.4%	193.1%	
CC1CCC(C(C)C)C(OCC(O)CN2CCCCCCC2)C1 (stereo not drawn) [Compound A0014]										inhibition at 0.01 µM ([1]; FLNA-binding compound 0.01 μM, read-out: Percent Binding Inhibition): 33.8%; inhibition at 0.1 µM ([1]; FLNA-binding compound 0.1 μM, read-out: Percent Binding Inhibition): 39.7%; inhibition at 1 µM ([1]; FLNA-binding compound 1 μM, read-out: Percent Binding Inhibition): 44.7%; MOR agonist activity ([35S]GTPγS binding), FLNA-Binding Compound as Agonist 0.1 μM (mu opiate receptor (MOR); 0.1 μM compound): 147.0%; % DAMGO (0.1 μM) (mu opiate receptor (MOR); [17]): 83.2%; MOR agonist activity ([35S]GTPγS binding), FLNA-Binding Compound as Agonist 1 μM (mu opiate receptor (MOR); 1 μM compound): 174.9%; MOR agonist activity ([35S]GTPγS binding), FLNA-Binding Compound as Agonist 1 μM + BFNA (mu opiate receptor (MOR)): 140.8%; % DAMGO + BFNA (mu opiate receptor (MOR); [18]): 214.3%; % DAMGO (1 μM) (mu opiate receptor (MOR); [19]): 67.5%

From patent publication US10363239B2, “Method for inhibiting growth of cancer cells” (Pain Therapeutics, Inc., priority 2013, dated 2019)
